Tests used:
[1] = compound: C1=CC2=C(C=C(C(=C2N=C1)O)N=NC3=CC4=C(C=C3)C=C(C=C4)S(=O)(=O)O)S(=O)(=O)O + NC(=O)Nc1cc(-c2cccc(F)c2)sc1C(=O)N[C@H]1CCCNC1 [AZD7762] (partner 0.2 µM); assay: relative viability (nuclei count vs DMSO), 5 days (fraction); higher = more cells survive
How it was run: (§1)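 Lung cancer cell lines in 1536-well plates got either a single drug or a fixed anchor-drug dose together with five library-drug doses (not always all listed) in √10 steps, by pin tool, on the day after seeding. Nuclei were counted after 5 days, and relative viability is the treated-to-vehicle ratio of nuclei counts. Values are medians of duplicate plates.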

[2] = compound: C1=CC2=C(C=C(C(=C2N=C1)O)N=NC3=CC4=C(C=C3)C=C(C=C4)S(=O)(=O)O)S(=O)(=O)O + CC(=O)Nc1cccc(-n2c(=O)n(C3CC3)c(=O)c3c(Nc4ccc(I)cc4F)n(C)c(=O)c(C)c32)c1 [Trametinib] (partner 0.02 µM); assay: as above
How it was run: as §1

Cell Line: SW 900
- relative viability ([1]; first compound 0.08 µM): 0.597
- relative viability ([1]; first compound 0.253 µM): 0.644
- relative viability ([1]; first compound 0.8 µM): 0.598
- relative viability ([1]; first compound 2.53 µM): 0.588
- relative viability ([1]; first compound 8 µM): 0.666
- relative viability ([2]; first compound 0.08 µM): 0.873
- relative viability ([2]; first compound 0.253 µM): 0.764
- relative viability ([2]; first compound 0.8 µM): 0.699
- relative viability ([2]; first compound 2.53 µM): 0.968
- relative viability ([2]; first compound 8 µM): 0.821

Source: the supplement of paper PMC10307832
